In patent publication US20130085161A1, “PIPERIDINYL SUBSTITUTED 1,3-DIHYDRO-BENZOIMIDAZOL-2-YLIDENEAMINE DERIVATIVES” (NOVARTIS AG, priority 2010, published 2013) one finds IC50 data, which are given here for 20 compounds.

A word on the pIC50: it is the negative decadic logarithm of the IC50, by convention in mol/L. A lower pIC50 goes with a high IC50.

pIC50: −log10 of the molar value.

T1 sequence (P08069 976-1367): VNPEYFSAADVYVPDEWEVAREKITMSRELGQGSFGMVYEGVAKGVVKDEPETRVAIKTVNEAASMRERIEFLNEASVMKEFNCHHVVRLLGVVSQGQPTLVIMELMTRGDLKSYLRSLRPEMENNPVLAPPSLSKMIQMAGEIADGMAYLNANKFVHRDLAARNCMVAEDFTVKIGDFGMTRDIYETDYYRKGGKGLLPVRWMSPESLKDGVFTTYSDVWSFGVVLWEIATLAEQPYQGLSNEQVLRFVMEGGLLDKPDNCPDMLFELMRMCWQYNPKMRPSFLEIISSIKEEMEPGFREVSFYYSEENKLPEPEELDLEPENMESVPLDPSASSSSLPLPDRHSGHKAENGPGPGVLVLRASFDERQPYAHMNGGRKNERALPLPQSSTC

One assay addresses T1, BaF3-Tel-IGF1-R (Homo sapiens, UniProt P08069).
T1 construct: the kinase domain of IGF-1R (aa 976-1367) linked by a Ser-Arg-linker; expressed in transfected cells; host or cells: BaF3 murine proB-cell lymphoma cells, stably transduced
Put plainly: BaF3 cell viability assay (resazurin), 384-well format. As to conditions: 384-well plate format; 48 h incubation; resazurin dye reduction; cell proliferation/viability. The format is cell-based. The source says:
(§1) BaF3-Tel-IGF1-R and BaF3-InsR are BaF3 murine proB-cell lymphoma cell derivatives [the BaF3 cell line (also termed Ba/F3) is available from the German Collection of Microorganisms and Cell Cultures (DSMZ), Braunschweig, Germany] that have been rendered IL-3-independent by stable transduction with kinase-activating fusions between human TEL (aa 1-452) and the kinase domain of IGF-1R (aa 976-1367) linked by a Ser-Arg-linker (Boulay et al, Cancer Res 68, 3743-3751, 2008), and a fusion between human TEL (aa 1-337) and the kinase domain (aa 1015-1382) of the Insulin receptor (Melnick J S et al, Proc Natl Acad Sci USA 103, 3153-3158, 2006), respectively. Cells are cultured in RPMI-1640 (Animed #1-14F01-1) supplemented with 2% L-glutamine (Animed #5-10K50-H) and 10% fetal calf serum (FCS, Animed #2-01F16-I). Wild-type, untransfected BaF3 cells are maintained in above medium plus 10 U/ml IL-3 (mouse Interleukin-3, Roche #1380745 or Invitrogen # PMC0035) and are used to identify non-selective, generally growth-inhibitory compounds. Cells (1.5×10^4 cells per well) are seeded in 190 μl fresh medium into 96-well plates. 10 μl 20× compound solutions are added. As internal control, the kinase inhibitor PKC412 is routinely used. Control cells treated with DMSO (0.1% final concentration) serve as growth reference (set as 100% growth). In addition, a plate blank value is routinely determined in a well containing only […] of medium and no cells. IC50 determinations are performed based on eight 3-fold serial dilutions of the test compound, starting at 10 μM. Following incubation of the cells for 48 h at 37° C. and 5% CO2, the effect of inhibitors on cell viability is assessed by the resazurin sodium salt dye reduction assay (commercially known as AlamarBlue assay) basically as previously described (O'Brien J. et al., Eur. J. Biochem. 267: 5421-5426, 2000). Briefly, 20 μl dye solution is added per well and the plates incubated for 6 h at 37° C. and 5% CO2. Thereafter, fluorescence is measured using a Saphirell 96-well plate reader (TECAN, Männedorf, Switzerland) with the following settings: Excitation 544 nm and Emission 590 nm. For data analysis, the plate blank value is subtracted from all data points. The effect of a particular test compound concentration on cell proliferation and viability is expressed as percentage of the blank-corrected reading obtained for cells treated with vehicle only, which is set as 100%. IC50 values can be determined using XLfit (V4.2), applying standard four parameter logistic model #205 (IDBS, Guilford, UK) or other common curve-fitting software.
To achieve a higher throughput, the cell viability assay can also be performed in a 384-well format. Briefly, 4′500 freshly diluted cells are seeded in 54 μl/well into 384-well plates using a liquid dispenser. 6 μl 10× compound solution is added to the cell plate. As internal control, the kinase inhibitor PKC412 is routinely used. Control cells treated with DMSO (0.1% final concentration) serve as growth reference (set as 100% growth). In addition, a plate blank value is routinely determined in a well containing only 60 μl of medium and no cells. Dose-response effects are determined by 3-fold serial compound dilutions, starting at 10 μM. Following incubation of the cells for 48 h at 37° C. and 5% CO2, the effect of compounds on cell proliferation/viability is assessed by addition of 6 μl resazurin sodium salt dye solution per well. Following incubation for an additional 6 hrs at 37° C. and 5% CO2, fluorescence is measured using an Infiniti M1000 microplate reader (TECAN, Männedorf, Switzerland) with excitation and emission wavelengths set at 544 and 590 nm, respectively. For data analysis, the plate blank value is subtracted from all data points. IC50 values can be determined by four parameter logistic fitting as described above.
(The colour change of resazurin is a common sign of viable cells or microbes.)
`CC(=O)Nc1ccc(Cl)cc1N1CC[C@H](n2c(=N)n(Cc3cccc4[nH]cnc34)c3ccc(F)cc32)[C@@H](O)C1` (racemic) [Example 67.7, Rac-trans-N-(2-{4-[3-(1H-Benzo-imidazol-4-ylmethyl)-6-fluoro-2-imino-2,3-dihydro-benzo-imidazol-1-yl]-3-hydroxy-piperidin-1-yl}-4-chloro-phenyl)-acetamide]: the negative logarithm of the IC50 (pIC50) was 6.19. The same measure, in the same setting: the figure for `CC(=O)Nc1ccc(C)nc1N1CC[C@H](n2c(=N)n(Cc3ccccc3Cl)c3ccc(F)cc32)[C@@H](O)C1` (racemic) [Example 67.2, Rac-trans-N-{4-[3-(2-Chloro-benzyl)-6-fluoro-2-imino-2,3-dihydro-benzoimidazol-1-yl]-3-hydroxy-6′-methyl-3,4,5,6-tetrahydro-2H-[1,2′]bipyridinyl-3′-yl}-acetamide] is 7.21; for `CC(=O)Nc1ccc(C)cc1N1CCC(n2c(=N)n(Cc3ccccc3Cl)c3ccccc32)CC1` [Example 56.5, N-(2-{4-[3-(2-Chloro-benzyl)-2-imino-2,3-dihydro-benzoimidazol-1-yl]-piperidin-1-yl}-4-methyl-phenyl)-acetamide] it is 7.29; for `CC(=O)Nc1ccc(C#N)cc1N1CCC(n2c(=N)n(Cc3ccccc3Cl)c3ccccc32)CC1` [Example 56.9, N-(2-{4-[3-(2-Chloro-benzyl)-2-imino-2,3-dihydro-benzoimidazol-1-yl]-piperidin-1-yl}-4-cyano-phenyl)-acetamide] it is 7.09.

As for `CC(=O)Nc1ccc(C#N)cc1N1CCC(n2c(=N)n(Cc3cccc4[nH]ccc34)c3ccc(F)cc32)CC1` [Example 56.11, N-(4-Cyano-2-{4-[6-fluoro-2-imino-3-(1H-indol-4-ylmethyl)-2,3-dihydro-benzoimidazol-1-yl]-piperidin-1-yl}-phenyl)-acetamide], the negative logarithm of the IC50 (pIC50) is 7.80. Regarding `CC(=O)Nc1ccc(Cl)cc1N1CCC(n2c(=N)n(Cc3cccc4[nH]cnc34)c3ccc(F)cc32)CC1` [Example 64, N-(2-{4-[3-(1H-Benzoimidazol-4-ylmethyl)-6-fluoro-2-imino-2,3-dihydro-benzoimidazol-1-yl]-piperidin-1-yl}-4-chloro-phenyl)-acetamide], the pIC50 was 6.79. Same read-out and setting: the figure for `CC(=O)Nc1ccc(C)nc1N1CC[C@H](n2c(=N)n(Cc3cccc4[nH]ccc34)c3ccccc32)[C@@H](O)C1` (racemic) [Example 67.4, Rac-trans-N-{3-Hydroxy-4-[2-imino-3-(1H-indol-4-ylmethyl)-2,3-dihydro-benzoimidazol-1-yl]-6′-methyl-3,4,5,6-tetrahydro-2H-[1,2′]bipyridinyl-3′-yl}-acetamide] is 6.00. In turn, `CC(=O)/N=c1\n(Cc2ccccc2Cl)c2ccccc2n1C1CCN(c2cc(Cl)ccc2NC(C)=O)CC1` [Example 59, N-(2-{4-[2-Acetylimino-3-(2-chloro-benzyl)-2,3-dihydro-benzoimidazol-1-yl]-piperidin-1-yl}-4-chloro-phenyl)-acetamide] gave a pIC50 of 6.39. As to `CC(=O)Nc1ccc(C(F)(F)F)cc1N1CCC(n2c(=N)n(Cc3cccc4[nH]nnc34)c3ccc(F)cc32)CC1` [Example 56.14, N-(2-{4-[3-(1H-Benzotriazol-4-ylmethyl)-6-fluoro-2-imino-2,3-dihydro-benzoimidazol-1-yl]-piperidin-1-yl}-4-trifluoromethyl-phenyl)-acetamide], the pIC50 is 7.64.

Regarding `CC(=O)Nc1ccc(Cl)cc1N1CC[C@H](n2c(=N)n(Cc3cccc4[nH]nnc34)c3ccc(F)cc32)[C@@H](O)C1` (racemic) [Example 67.6, Rac-trans-N-(2-{4-[3-(1H-Benzo-triazol-4-ylmethyl)-6-fluoro-2-imino-2,3-dihydro-benzoimidazol-1-yl]-3-hydroxy-piperidin-1-yl}-4-chloro-phenyl)-acetamide], the pIC50 was 6.29.

The compound `CC(=O)Nc1ccc(C)cc1N1CCC(n2c(=N)n(Cc3cccc4[nH]ccc34)c3ccc(F)cc32)CC1` [Example 56.15, N-(2-{4-[6-Fluoro-2-imino-3-(1H-indol-4-ylmethyl)-2,3-dihydro-benzoimidazol-1-yl]-piperidin-1-yl}-4-methyl-phenyl)-acetamide] showed a pIC50 of 7.39. In the case of `COc1ccc(NC(C)=O)c(N2CCC(n3c(=N)n(Cc4ccccc4Cl)c4ccccc43)CC2)c1` [Example 56.10, N-(2-{4-[3-(2-Chloro-benzyl)-2-imino-2,3-dihydro-benzoimidazol-1-yl]-piperidin-1-yl}-4-methoxy-phenyl)-acetamide], the pIC50 was 7.06. `CC(=O)Nc1ccc(Cl)cc1N1CCC(n2c(=N)n(Cc3ccccc3Cl)c3ccccc32)CC1` [Example 58, N-(4-Chloro-2-{4-[3-(2-chloro-benzyl)-2-imino-2,3-dihydro-benzoimidazol-1-yl]-piperidin-1-yl}-phenyl)-acetamide] gave a pIC50 of 7.43.

As to `CC(=O)Nc1ccc(C(F)(F)F)cc1N1CCC(n2c(=N)n(Cc3ccccc3Cl)c3ccccc32)CC1` [Example 56.7, N-(2-{4-[3-(2-Chloro-benzyl)-2-imino-2,3-dihydro-benzoimidazol-1-yl]-piperidin-1-yl}-4-trifluoromethyl-phenyl)-acetamide], the pIC50 is 7.16. `CC(=O)Nc1ccc(Cl)cc1N1CCC(n2c(=N)n(Cc3cccc4[nH]nnc34)c3ccccc32)CC1` [Example 60, N-(2-{4-[3-(1H-Benzotriazol-4-ylmethyl)-2-imino-2,3-dihydro-benzoimidazol-1-yl]-piperidin-1-yl}-4-chloro-phenyl)-acetamide] had a pIC50 of 7.19.

For the compound `CC(=O)Nc1ccccc1N1CCC(n2c(=N)n(Cc3ccccc3Cl)c3ccc(F)cc32)CC1` [Example 56.18, N-(2-{4-[3-(2-Chloro-benzyl)-6-fluoro-2-imino-2,3-dihydro-benzoimidazol-1-yl]-piperidin-1-yl}-phenyl)-acetamide], the pIC50 was 6.92. Take `CC(=O)Nc1ccc(Cl)cc1N1CCC(n2c(=N)n(Cc3cccc4[nH]ccc34)c3ccc(F)cc32)CC1` [Example 61, N-(4-Chloro-2-{4-[6-fluoro-2-imino-3-(1H-indol-4-ylmethyl)-2,3-dihydro-benzoimidazol-1-yl]-piperidin-1-yl}-phenyl)-acetamide]: the negative logarithm of the IC50 (pIC50) is 8.10.

With `CC(=O)Nc1ccccc1N1CCC(n2c(=N)n(Cc3cccc4[nH]ccc34)c3ccc(F)cc32)CC1` [Example 56.19, N-(2-{4-[6-Fluoro-2-imino-3-(1H-indol-4-ylmethyl)-2,3-dihydro-benzoimidazol-1-yl]-piperidin-1-yl}-phenyl)-acetamide], the pIC50 was 6.42.

For the next assay, the target named is T1, BaF3-Tel-IGF1-R. Kind of assay: BaF3 cell viability assay (resazurin/AlamarBlue), 96-well format. The following applies: 96-well plate format; 48 h incubation; resazurin dye reduction; cell proliferation/viability. It counts as cell-based.
From the text: as §1, with “10 μl 20× compound solutions are added. As internal control, the kinase inhibitor PKC412 is routinely used. Control cells treated with DMSO (0.1% final concentration) serve as growth reference (set as 100% growth).” left out, “IC50 determinations are performed based on eight 3-fold serial dilutions of the test compound, starting at 10 μM.” left out, “Briefly, 20 μl dye solution is added per well and the plates incubated for 6 h at 37° C. and 5% CO2.” left out, “For data analysis, the plate blank value is subtracted from all data points.” left out
In turn, `Cc1cccc(N2CCC(n3c(=N)n(Cc4ccccc4Cl)c4ccccc43)CC2)c1` [Example 54, 1-(2-Chloro-benzyl)-3-(1-m-tolyl-piperidin-4-yl)-1,3-dihydro-benzoimidazol-2-ylideneamine] gave a pIC50 of 6.39. Regarding `Cc1cccc(N2CCC(n3c(=N)n(Cc4cc(F)ccc4Cl)c4ccccc43)CC2)c1` [Example 55, 1-(2-Chloro-5-fluoro-benzyl)-3-(1-m-tolyl-piperidin-4-yl)-1,3-dihydro-benzoimidazol-2-ylideneamine], the pIC50 is 6.54.
